Values after ≈ are worked out from the molar mass of the structure shown.

As a reminder, the IC50 is the concentration needed to halve the response being measured. As usually defined, the IC90 is the concentration needed for an effect of 90%.

The test system of one test is K562/ADR (K562adr, drug-resistant chronic myeloid leukemia) cells. Briefly: MTT cell growth inhibition, leukemia cells. The format is cell-based. Conditions: Homo sapiens; K562/ADR, 72 h, MTT; read-out: IC50. Put shortly: (§1)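 Growth inhibition is assessed by MTT after leukemia cells, plated at 6000 per well in RPMI-1640 containing 10% fetal bovine serum, are exposed for 72 hours to graded compound concentrations added the day after plating.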
On to `COc1ccc2cc1Oc1ccc(cc1)C[C@H]1c3cc(c(OC)cc3CCN1C)Oc1c(OCC(O)CNCC3CC3)c(OC)cc3c1[C@H](C2)N(C)CC3` (some centres unmarked) [BS-FC-405], for which the IC50 is 0.6 µg/mL (≈ 0.815 µM).

The same test, now with this note: Homo sapiens; K562/ADR, 72 h, MTT; read-out: IC90.
For the compound `COc1ccc2cc1Oc1ccc(cc1)C[C@H]1c3cc(c(OC)cc3CCN1C)Oc1c(OCC(O)CNCC3CC3)c(OC)cc3c1[C@H](C2)N(C)CC3` (some centres unmarked) [BS-FC-405], the 90% effect concentration (IC90) was 1.73 µg/mL (≈ 2.35 µM).

In a further test the test system is NB4 (acute promyelocytic leukemia) cells. Briefly: MTT cell growth inhibition, leukemia cells. It is filed as cell-based. The settings on record: Homo sapiens; NB4, 72 h, MTT; read-out: IC50. In short, it runs like this: as §1
As to `COc1ccc2cc1Oc1ccc(cc1)C[C@H]1c3cc(c(OC)cc3CCN1C)Oc1c(OCC(O)CNCC3CC3)c(OC)cc3c1[C@H](C2)N(C)CC3` (some centres unmarked) [BS-FC-405], the concentration for half-maximal inhibition (IC50) is 0.47 µg/mL (≈ 0.639 µM).

Staying with this test, now noted: Homo sapiens; NB4, 72 h, MTT; read-out: IC90.
With `COc1ccc2cc1Oc1ccc(cc1)C[C@H]1c3cc(c(OC)cc3CCN1C)Oc1c(OCC(O)CNCC3CC3)c(OC)cc3c1[C@H](C2)N(C)CC3` (some centres unmarked) [BS-FC-405], the concentration for an effect of 90% (IC90) turned out to be 0.95 µg/mL (≈ 1.29 µM).

Another test has as its system H9 (acute lymphoblastic leukemia) cells. The experiment in a line: MTT cell growth inhibition, leukemia cells. It is filed as cell-based, human. Conditions: Homo sapiens; H9, 72 h, MTT; read-out: IC50. In short, it runs like this:
as §1
With `COc1ccc2cc1Oc1ccc(cc1)C[C@H]1c3cc(c(OC)cc3CCN1C)Oc1c(OCC(O)CNCC3CC3)c(OC)cc3c1[C@H](C2)N(C)CC3` (some centres unmarked) [BS-FC-405], the IC50 was 1.45 µg/mL (≈ 1.97 µM).

Staying with this test, now noted: Homo sapiens; H9, 72 h, MTT; read-out: IC90.
As to `COc1ccc2cc1Oc1ccc(cc1)C[C@H]1c3cc(c(OC)cc3CCN1C)Oc1c(OCC(O)CNCC3CC3)c(OC)cc3c1[C@H](C2)N(C)CC3` (some centres unmarked) [BS-FC-405], the concentration for an effect of 90% (IC90) came to 2.9 µg/mL (≈ 3.94 µM).

The test system of a further test is Jurkat (acute lymphoblastic leukemia) cells. The experiment in a line: MTT cell growth inhibition, leukemia cells. The format is cell-based, human. The settings on record: Homo sapiens; Jurkat, 72 h, MTT; read-out: IC50. Put shortly: as §1
Regarding `COc1ccc2cc1Oc1ccc(cc1)C[C@H]1c3cc(c(OC)cc3CCN1C)Oc1c(OCC(O)CNCC3CC3)c(OC)cc3c1[C@H](C2)N(C)CC3` (some centres unmarked) [BS-FC-405], the IC50 turned out to be 0.56 µg/mL (≈ 0.761 µM).

Staying with this test, now noted: Homo sapiens; Jurkat, 72 h, MTT; read-out: IC90.
In the case of `COc1ccc2cc1Oc1ccc(cc1)C[C@H]1c3cc(c(OC)cc3CCN1C)Oc1c(OCC(O)CNCC3CC3)c(OC)cc3c1[C@H](C2)N(C)CC3` (some centres unmarked) [BS-FC-405], the concentration for an effect of 90% (IC90) is 0.99 µg/mL (≈ 1.35 µM).

In the next test the test system is Kasumi-1 (acute myeloid leukemia M2 type) cells. Briefly: MTT cell growth inhibition, leukemia cells. It is filed as cell-based, human. Conditions: Homo sapiens; Kasumi-1, 72 h, MTT; read-out: IC50. Put shortly: as §1
On to `COc1ccc2cc1Oc1ccc(cc1)C[C@H]1c3cc(c(OC)cc3CCN1C)Oc1c(OCC(O)CNCC3CC3)c(OC)cc3c1[C@H](C2)N(C)CC3` (some centres unmarked) [BS-FC-405], for which the half-maximal inhibitory concentration (IC50) worked out at 0.76 µg/mL (≈ 1.03 µM).

The test is the same for the next values; noted with them: Homo sapiens; Kasumi-1, 72 h, MTT; read-out: IC90.
Take `COc1ccc2cc1Oc1ccc(cc1)C[C@H]1c3cc(c(OC)cc3CCN1C)Oc1c(OCC(O)CNCC3CC3)c(OC)cc3c1[C@H](C2)N(C)CC3` (some centres unmarked) [BS-FC-405]: the IC90 stood at 1.75 µg/mL (≈ 2.38 µM).

A further test concerns RPMI 8226 (multiple myeloma) cells. Briefly: MTT cell growth inhibition, multiple myeloma cells. The format is cell-based, human. Conditions: Homo sapiens; RPMI 8226, 72 h, MTT; read-out: IC50. Put shortly: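 RPMI 8226 myeloma cells, 6000 per well in RPMI-1640 with 10% FBS, were dosed with fangchinoline derivatives at several concentrations the day after seeding. Incubation ran 72 h at 37° C in 5% CO2, then viable cells were measured by MTT.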
`COc1ccc2cc1Oc1ccc(cc1)C[C@H]1c3cc(c(OC)cc3CCN1C)Oc1c(OCC(O)CNCC3CC3)c(OC)cc3c1[C@H](C2)N(C)CC3` (some centres unmarked) [BS-FC-405]: the IC50 came to 0.05 µg/mL (≈ 0.0679 µM).

Still in this test, the particulars now being: Homo sapiens; RPMI 8226, 72 h, MTT; read-out: IC90.
On to `COc1ccc2cc1Oc1ccc(cc1)C[C@H]1c3cc(c(OC)cc3CCN1C)Oc1c(OCC(O)CNCC3CC3)c(OC)cc3c1[C@H](C2)N(C)CC3` (some centres unmarked) [BS-FC-405], for which the concentration for an effect of 90% (IC90) was 0.44 µg/mL (≈ 0.598 µM).

For the next test, the system named is CNE (nasopharyngeal carcinoma) cells. The experiment in a line: MTT cell growth inhibition, solid tumor cells. It is filed as cell-based, human. Conditions: Homo sapiens; CNE, 72 h, MTT; read-out: IC50. Put shortly: (§2)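 Exposure lasted 72 h, following 24 h growth of 6000 cells/well in DMEM high glucose containing 10% FBS at 37 °C in 5% CO2; endpoint was MTT-based viable cell concentration across tested compound concentrations.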
Turning to `COc1ccc2cc1Oc1ccc(cc1)C[C@H]1c3cc(c(OC)cc3CCN1C)Oc1c(OCC(O)CNCC3CC3)c(OC)cc3c1[C@H](C2)N(C)CC3` (some centres unmarked) [BS-FC-405], the IC50 turned out to be 0.8 µg/mL (≈ 1.09 µM).

Staying with this test, now noted: Homo sapiens; CNE, 72 h, MTT; read-out: IC90.
Regarding `COc1ccc2cc1Oc1ccc(cc1)C[C@H]1c3cc(c(OC)cc3CCN1C)Oc1c(OCC(O)CNCC3CC3)c(OC)cc3c1[C@H](C2)N(C)CC3` (some centres unmarked) [BS-FC-405], the concentration for an effect of 90% (IC90) worked out at 1.7 µg/mL (≈ 2.31 µM).

The same test, now with this note: relative to fangchinoline, Table 2.
With `COc1ccc2cc1Oc1ccc(cc1)C[C@H]1c3cc(c(OC)cc3CCN1C)Oc1c(OCC(O)CNCC3CC3)c(OC)cc3c1[C@H](C2)N(C)CC3` (some centres unmarked) [BS-FC-405], the “anti-CNE activity increase over fangchinoline” value is reported as around 3 fold.

A further test concerns CaEs-17 (esophageal cancer) cells. Briefly: MTT cell growth inhibition, solid tumor cells. The format is cell-based, human. Conditions: Homo sapiens, CaEs17; CaEs-17, 72 h, MTT; read-out: IC50. Put shortly:
as §2
As to `COc1ccc2cc1Oc1ccc(cc1)C[C@H]1c3cc(c(OC)cc3CCN1C)Oc1c(OCC(O)CNCC3CC3)c(OC)cc3c1[C@H](C2)N(C)CC3` (some centres unmarked) [BS-FC-405], the IC50 was determined as 0.49 µg/mL (≈ 0.666 µM).

Still in this test, the particulars now being: Homo sapiens, CaEs17; CaEs-17, 72 h, MTT; read-out: IC90.
For the compound `COc1ccc2cc1Oc1ccc(cc1)C[C@H]1c3cc(c(OC)cc3CCN1C)Oc1c(OCC(O)CNCC3CC3)c(OC)cc3c1[C@H](C2)N(C)CC3` (some centres unmarked) [BS-FC-405], the concentration for an effect of 90% (IC90) was determined as 1.95 µg/mL (≈ 2.65 µM).

Still in this test, the particulars now being: relative to fangchinoline, Table 2.
As for `COc1ccc2cc1Oc1ccc(cc1)C[C@H]1c3cc(c(OC)cc3CCN1C)Oc1c(OCC(O)CNCC3CC3)c(OC)cc3c1[C@H](C2)N(C)CC3` (some centres unmarked) [BS-FC-405], the “anti-CaEs-17 activity increase over fangchinoline” value is on record as around 4 fold.

The next test relates to PANC-1 (pancreatic cancer) cells. Briefly: MTT cell growth inhibition, solid tumor cells. Conditions: Homo sapiens; PANC-1, 72 h, MTT; read-out: IC50. The format is cell-based, human. Put shortly:
as §2
Turning to `COc1ccc2cc1Oc1ccc(cc1)C[C@H]1c3cc(c(OC)cc3CCN1C)Oc1c(OCC(O)CNCC3CC3)c(OC)cc3c1[C@H](C2)N(C)CC3` (some centres unmarked) [BS-FC-405], the half-inhibitory concentration (IC50) was 1.14 µg/mL (≈ 1.55 µM).

The same test, now with this note: Homo sapiens; PANC-1, 72 h, MTT; read-out: IC90.
Take `COc1ccc2cc1Oc1ccc(cc1)C[C@H]1c3cc(c(OC)cc3CCN1C)Oc1c(OCC(O)CNCC3CC3)c(OC)cc3c1[C@H](C2)N(C)CC3` (some centres unmarked) [BS-FC-405]: the IC90 stood at 3.34 µg/mL (≈ 4.54 µM).

Values taken from patent US9328122B2, “7-substituted Hanfangichin B derivative, and preparation method and use thereof” (HANGZHOU BENSHENG PHARMACEUTICAL CO., LTD., priority 2012, dated 2016).
